Values joined by “and” are separate entries in the source; they are usually repeats but may differ in a detail not shown here. Equal values may be shown once. “Also recorded” adds a separate entry of the source. Read-outs that look alike come from different tables or passages of the source. Marks after values point to notes of the source that are not given here.
Key:
[1] = test system: mice; parameters: method as in PMID 18353307, PMID 25816912; settings: 95% confidence limits in parentheses; cited from earlier work
[2] = test system: mice; parameters: method as in PMID 18353307, PMID 25816912; settings: 95% confidence limits in parentheses; cited from earlier work; remark: listed apart in the source
[3] = test system: mice; parameters: method as in PMID 18353307, PMID 25816912; settings: 95% confidence limits in parentheses; cited from earlier work; remark: listed apart in the source
[4] = test system: mice; assay: Abdominal constriction test; assay type: in vivo; settings: for effect of antagonist pretreatment on Dezocine-produced antinociception: antagonist 20 mg/kg i.p., 24 h before 0.25 mg/kg Dezocine; for effect of Dezocine on morphine-induced antinociception: 0.05 mg/kg Dezocine; for ED50: Mus musculus
[5] = molecular target: T1, human κ-opioid receptor (Homo sapiens, UniProt P41145); assay: Receptor binding assay, [3H]U69593 competition; settings: CHO cell membranes, 1.5 nM [3H]U69593; read-out: κ binding affinity Ki
T1 construct: expressed in transfected cells; membranes prepared

[6] = test system: mice; assay: Rotorod test (sedation); assay type: in vivo; settings: for sedative effect, rotarod test: 15 min after injection
[7] = molecular target: T2, rat δ-opioid receptor (Rattus norvegicus, UniProt P33533); assay: Receptor binding assay, [3H]DPDPE competition; settings: read-out: δ binding affinity Ki
T2 construct: expressed in transfected cells; membranes prepared

[8] = test system: mice; assay: Formalin test; assay type: in vivo; settings: for ED50: Mus musculus, 0.25 h
Protocol: (§1) Kunming strain male and female mice weighing 20 to 24 g were obtained from the Laboratory Animal Center, Chinese Academy of Sciences (Shanghai, China). Mice were housed in groups in a room maintained in a 12/12 h light/dark cycle in a temperature controlled environment with free access to food and water. All research protocols were approved by the Animal Care and Use Committee of Shanghai Institute of Materia Medica, Chinese Academy of Sciences. All experimental procedures were in strict accordance with the National Institutes of Health Guide for the Care and Use of Laboratory Animals.
The formalin test was performed according to our previous work[35]. In brief, the amount of time that mice spent licking or flinching the injected hind paw was recorded after injected with 20 μl 1.0% formalin at the plantar surface of the right hind paw. The mice were observed fro 60 min. The first 10 min was recorded as the phase I, and the rest of time was recorded as phase II. Percentage of analgesia was calculated as 100× (time of control – time of drug)/time of control.

[9] = test system: mice; assay: Hot plate test; assay type: in vivo
Protocol: as §1
Hot plate test was performed according to the method described previously[31],[34],[35]. Briefly, mice were placed on a 55 °C heated surface, the latency to licking or jumping was recorded. The cut-off time of 60 s was used to minimize tissue damage. Before formal study, the nociceptive response of each mouse was measured three times, and the mean of the 2nd and 3rd responses was used as pre-drug latency. The mouse not responding within 20 s was excluded. The percentage antinociception was calculated as 100× [(test latency-predrug latency)/(cut-off time -predrug latency)].

[10] = molecular target: T3, rat μ-opioid receptor (Rattus norvegicus, UniProt P33535); assay: Receptor binding assay, [3H]DAMGO competition
T3 construct: expressed in transfected cells; membranes prepared

[11] = molecular target: T2, rat δ-opioid receptor; assay: [35S]GTPγS binding assay, DOR; assay type: biochemical; settings: read-out: Agonist activity DOR Emax (agonist efficacy at 10 μM)
[12] = molecular target: T3, rat μ-opioid receptor; assay: [35S]GTPγS binding assay, MOR; assay type: biochemical; settings: for functional profile at μ opioid receptor: G protein activation; for Kb: read-out: Antagonist activity MOR Ke
[13] = molecular target: T1, human κ-opioid receptor; assay: [35S]GTPγS binding assay, KOR; assay type: biochemical
[14] = mice, 15 min after drug administration, 95% confidence limits in parentheses

CN1CC[C@]23c4c5ccc(O)c4O[C@H]2[C@@H](O)C=C[C@H]3[C@H]1C5 [Morphine]
Antinociception ED50 Hot plate test [1]: 6.9 (5.6–8.5)^a mg/kg
Antinociception ED50 Abdominal constriction test [2]: 0.8 (0.5–1.2)^a mg/kg
Antinociception ED50 Formalin test Phase I [3]: 5.1 (4.3–5.9)^b mg/kg
Antinociception ED50 Formalin test Phase II [3]: 3.1 (2.8–3.3)^b mg/kg

Oc1ccc2c3c1O[C@H]1c4[nH]c5c(c4C[C@@]4(O)[C@@H](C2)N(CC2CC2)CC[C@]314)C[C@@]1(O)[C@H]2Cc3ccc(O)c4c3[C@@]1(CCN2CC1CC1)[C@H]5O4 [nor-BNI, nor-binaltorphimine]
effect of antagonist pretreatment on Dezocine-produced antinociception ([4]; p < 0.05): significantly decreased

COC(=O)/C=C/C(=O)N[C@@H]1CC[C@@]2(O)[C@H]3Cc4ccc(O)c5c4[C@@]2(CCN3CC2CC2)[C@H]1O5 [β-FNA, β-funaltrexamine]
effect of antagonist pretreatment on Dezocine-produced antinociception ([4]; p < 0.05): significantly decreased

C[C@@]12CCCCC[C@@H](Cc3ccc(O)cc31)[C@@H]2N [Dezocine]
Ki [5]: 22 ± 1.52 nM
sedative effect, rotarod test ([6]; 2.5 mg/kg, trend, p = 0.0881): did not reach significant difference
sedative effect, rotarod test ([6]; 5 mg/kg, p < 0.05 vs saline): produced significant sedation
sedative effect, rotarod test ([6]; 7.5 and 25 mg/kg): the sedative effect diminished
dose that produced sedative side effects (ceiling effect) ([6]; rotarod test): 5 mg/kg
Ki [7]: 399 ± 43.3 nM
ED50 ([8]; mice, 15 min after drug administration, 95% confidence limits in parentheses, read-out: Antinociception ED50 Formalin test Phase I): 0.4 mg/kg
ED50 ([8]; mice, 15 min after drug administration, 95% confidence limits in parentheses, read-out: Antinociception ED50 Formalin test Phase II): 0.4 mg/kg
Antinociception ED50 Formalin test Phase I [8, 14]: 0.4 (0.2–1.0) mg/kg
Antinociception ED50 Formalin test Phase II [8, 14]: 0.4 (0.2–0.9) mg/kg
potency relative to morphine, formalin test phase I ([8]; ratio of ED50 values): approximately 13 fold
potency relative to morphine, formalin test phase II ([8]; ratio of ED50 values): 9 fold
maximal antinociceptive effect, hot-plate test ([9]; at 7.5 mg/kg, bell-shaped dose-response curve): around 60%
duration of consistent high (close to peak) antinociceptive response ([9]; hot-plate test, time course): up to 1 h
onset of antinociceptive action ([9]; hot-plate test, time course): 5 min
maximal antinociception, hot-plate test, whatever the route of administration ([9]; i.v., s.c., or p.o.): around 55%
selectivity for μ over δ opioid receptors ([10]; from Ki values): 273 fold
selectivity for μ over κ opioid receptors ([10]; from Ki values): 15 fold
Ki ([10]; read-out: µ binding affinity Ki): 1.46 ± 0.1 nM
Emax at 10 µM [11]: 26.1 ± 1%
functional profile at μ opioid receptor [12]: μ partial agonist
Emax at 10 µM ([12]; read-out: Agonist activity MOR Emax (agonist efficacy at 10 μM)): 45.8 ± 1.1%
Kb [12]: 10.4 ± 4.9 nM
Kb ([12]; rightward shift of DAMGO concentration-response curve, single dose method): 10.4 nM
functional profile at κ opioid receptor ([13]; G protein activation): κ partial agonist
Agonist activity KOR Emax (agonist efficacy at 10 μM) ([13]; at 10 μM, % of the maximal stimulation obtained with U50,488 H): 33.6 ± 2.4^d %
Emax at 10 µM ([13]; read-out: Agonist activity KOR Emax (agonist efficacy at 10 μM), at 10 μM, % of the maximal stimulation obtained with U50,488 H): 33 to 45%
Kb ([13]; rightward shift of U50,488 H concentration-response curve, single dose method, read-out: Antagonist activity KOR Ke): 324.1 nM and 324 nM
effect of Dezocine on morphine-induced antinociception ([4]; 0.3 mg/kg morphine): did not affect
effect of Dezocine on morphine-induced antinociception ([4]; 0.4 mg/kg morphine, p < 0.05): significantly decreased; also recorded: significantly inhibited
effect of Dezocine co-administration on morphine antinociception ([4]; 0.125 mg/kg Dezocine and 0.3 mg/kg morphine): produced higher antinociception than morphine used alone
effect of Dezocine on U50,488H-induced antinociception ([4]; Dezocine pretreatment, U50,488 H 1.2 mg/kg i.p., without β-FNA): did not inhibit; also recorded: did not affect
ED50 ([4]; 0.25 h, mice, 15 min after drug administration, 95% confidence limits in parentheses, read-out: Antinociception ED50 Abdominal constriction test): 0.2 mg/kg
ED50 ([4]; summary over abdominal constriction and formalin tests, read-out: ED50 values of Dezocine-induced antinociception): 0.2 to 0.4 mg/kg
potency relative to morphine, abdominal constriction test ([4]; ratio of ED50 values): 4 fold
effect of Dezocine on U50,488H-induced antinociception in the presence of β-FNA ([4]; β-FNA pretreatment, U50,488 H 1.2 mg/kg i.p., p < 0.05): significantly decreased

C[C@@H](NC(=O)[C@@H](N)Cc1ccc(O)cc1)C(=O)NCC(=O)N(C)[C@@H](Cc1ccccc1)C(=O)NCCO [DAMGO, [D-Ala2,N-Me-Phe4,Gly5-ol]-enkephalin]
Emax ([12]; 0.1 nM [35S]GTPγS, percentage of stimulated binding over basal, read-out: Agonist activity MOR Emax): 241 ± 33.8%
functional profile at μ opioid receptor [12]: full agonist efficacy

Source: publication PMC6148296 (Scientific Reports, 2018)
